EC50 data for 44 compounds are collected here from patent US9388147B2 (Receptos, Inc., priority 2009, dated 2016).

A value given as a limit tells only on which side of the number the result lay.

The target of this assay is S1P1/EDG1 (Homo sapiens, UniProt P21453). Description: S1P1 CRE-bla CHOK1 reporter assay, inhibition of Forskolin induced cAMP. Particulars: agonist activity range, S1P1 CRE-bla CHOK1, 2 μM Forskolin; read-out: S1P1 ACTIVITY
S1P1/EDG1, sequence (P21453 whole entry): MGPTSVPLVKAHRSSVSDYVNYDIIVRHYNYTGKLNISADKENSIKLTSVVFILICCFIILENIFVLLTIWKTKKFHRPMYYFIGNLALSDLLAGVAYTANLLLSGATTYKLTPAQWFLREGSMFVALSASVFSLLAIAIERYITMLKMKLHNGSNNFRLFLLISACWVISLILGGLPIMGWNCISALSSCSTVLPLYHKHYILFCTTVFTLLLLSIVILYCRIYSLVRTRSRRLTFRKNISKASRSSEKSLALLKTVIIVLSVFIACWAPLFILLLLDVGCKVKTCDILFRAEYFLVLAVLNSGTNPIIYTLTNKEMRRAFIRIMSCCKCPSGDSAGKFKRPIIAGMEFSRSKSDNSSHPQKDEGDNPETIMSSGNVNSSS
Type of assay: cell-based. On the procedure:
Generation of S1P1-Mediated Inhibition of cAMP Reporter Assay
A mammalian expression plasmid containing S1P1/EDG1 cloned into pcDNA3.1 was purchased from Missouri S&T cDNA Resource Centre. […] S1P1/pcDNA3.1 was transfected into the CRE-bla CHO K1 (Invitrogen) cell line, and stable single cell clones were selected using standard techniques.
S1P1 CRE-Bla CHOK1 Reporter Assay—Characterization of S1P1 Agonists
Cells were seeded into 384-well black wall/clear bottom plates at 10^4 cells/well/19.5 μl assay media (DMEM-phenol free, 0.5% charcoal/dextran stripped serum, 2 mM glutamine, 0.1 mM NEAA, 1 mM Na-Pyruvate, 25 mM Hepes) and incubated for 18 hrs at 37° C. in 5% CO2. Dose response curves (10-point) were generated in 10 mM Hepes, 0.1% Pluronic F127, in the presence of Forskolin. Cells were treated with 0.5 μl compound in the presence of 2 μM Forskolin for 4 hrs at 37° C. The FRET-based β-lactamase fluorescent substrate (LiveBLAzer™-FRET B/G Loading Kit CC4-AM; Invitrogen) was prepared according to manufacturer's directions, and incubated with cells for 2 hrs at room temperature. […] Data was analyzed by non-linear regression to determine the EC50 for inhibition of Forskolin induced cAMP.
(In a reporter assay the amount or activity of a reporter protein is the signal.)
Take `CC(C)Oc1ccc(-c2nc(-c3cccc4c3CCC4N[C@@H](C)c3ccccc3)no2)cc1C#N` (stereo in doubt) [Compound 123]: the EC50 is above 5 nM.

For the compound `CCOc1ccc(-c2nc(-c3cccc4c3CC[C@H]4O)no2)cc1OCC` [Compound 1], the EC50 fell in the range of 0.05 to 0.5 nM. For `CCOc1ccc(-c2nc(-c3cccc4c3CC[C@@H]4O)no2)cc1OCC` [Compound 2], the EC50 is 0.05 to 0.5 nM. Then `CCOc1ccc(-c2nc(-c3cccc4c3CC[C@H]4O)no2)cc1C#N` [Compound 3], with 0.05 to 0.5 nM. With `CCOc1ccc(-c2nc(-c3cccc4c3CC[C@@H]4O)no2)cc1C#N` [Compound 4], the EC50 was in the range of 0.05 to 0.5 nM. Under `CC(C)Oc1ccc(-c2nc(-c3cccc4c3CC[C@H]4O)no2)cc1C#N` [Compound 5, (R)-5-(3-(1-hydroxy-2,3-dihydro-1H-inden-4-yl)-1,2,4-oxadiazol-5-yl)-2-isopropoxybenzonitrile] stands below 0.05 nM; under `CC(C)Oc1ccc(-c2nc(-c3cccc4c3CC[C@@H]4O)no2)cc1C#N` [Compound 6, (S)-5-(3-(1-hydroxy-2,3-dihydro-1H-inden-4-yl)-1,2,4-oxadiazol-5-yl)-2-isopropoxy-benzonitrile], below 0.05 nM; under `CC(C)Oc1ccc(-c2nc(-c3cccc4c3CC[C@H]4O)no2)cc1C(F)(F)F` [Compound 7], 0.5 to 5 nM. Then `CC(C)Oc1ccc(-c2nc(-c3cccc4c3CC[C@@H]4O)no2)cc1C(F)(F)F` [Compound 8], with 0.05 to 0.5 nM; and `CCOc1ccc(-c2nc(-c3cccc4c3CC[C@H]4O)no2)cc1C(F)(F)F` [Compound 9], with 0.5 to 5 nM. Then `CCOc1ccc(-c2nc(-c3cccc4c3CC[C@@H]4O)no2)cc1C(F)(F)F` [Compound 10], with 0.05 to 0.5 nM; and `CC(=O)O[C@@H]1CCc2c(-c3noc(-c4ccc(OC(C)C)c(C#N)c4)n3)cccc21` [Compound 13, (R)-4-(5-(3-cyano-4-isopropoxyphenyl)-1,2,4-oxadiazol-3-yl)-2,3-dihydro-1H-inden-1-yl acetate], with 0.5 to 5 nM; and `CC(C)Oc1ccc(-c2nc(-c3cccc4c3CC[C@H]4OC(=O)C(C)(C)C)no2)cc1C#N` [Compound 14, (R)-4-(5-(3-cyano-4-isopropoxyphenyl)-1,2,4-oxadiazol-3-yl)-2,3-dihydro-1H-inden-1-yl pivalate], with above 5 nM. Turning to `CC(C)Oc1ccc(-c2nc(-c3cccc4c3CC[C@H]4NCC(N)=O)no2)cc1C#N` [Compound 51], the EC50 was below 0.05 nM. Under `CNC(=O)CN[C@@H]1CCc2c(-c3noc(-c4ccc(OC(C)C)c(C#N)c4)n3)cccc21` [Compound 52] stands 0.05 to 0.5 nM. Then `CC(C)Oc1ccc(-c2nc(-c3cccc4c3CC[C@@H]4N[C@@H](C)CO)no2)cc1C#N` [Compound 53, 5-(3-((S)-1-(((S)-1-hydroxypropan-2-yl)amino)-2,3-dihydro-1H-inden-4-yl)-1,2,4-oxadiazol-5-yl)-2-isopropoxybenzonitrile], with 0.5 to 5 nM; and `CC(C)Oc1ccc(-c2nc(-c3cccc4c3CC[C@H]4N[C@@H](C)CO)no2)cc1C#N` [Compound 54, 5-(3-((R)-1-(((S)-1-hydroxypropan-2-yl)amino)-2,3-dihydro-1H-inden-4-yl)-1,2,4-oxadiazol-5-yl)-2-isopropoxybenzonitrile], with 0.05 to 0.5 nM; and `CC(C)Oc1ccc(-c2nc(-c3cccc4c3CC[C@@H]4N[C@H](C)CO)no2)cc1C#N` [Compound 55, 5-(3-((S)-1-(((R)-1-hydroxypropan-2-yl)amino)-2,3-dihydro-1H-inden-4-yl)-1,2,4-oxadiazol-5-yl)-2-isopropoxybenzonitrile], with 0.05 to 0.5 nM. Turning to `CC(C)Oc1ccc(-c2nc(-c3cccc4c3CC[C@H]4N[C@H](C)CO)no2)cc1C#N` [Compound 56, 5-(3-((R)-1-(((R)-1-hydroxypropan-2-yl)amino)-2,3-dihydro-1H-inden-4-yl)-1,2,4-oxadiazol-5-yl)-2-isopropoxybenzonitrile], the EC50 lay within 0.05 to 0.5 nM. Under `CC(C)Oc1ccc(-c2nc(-c3cccc4c3CC[C@H]4NCC(C)(C)O)no2)cc1C#N` [Compound 57] stands 0.5 to 5 nM. Under `CCN(CC)C(=O)CN[C@@H]1CCc2c(-c3noc(-c4ccc(OC(C)C)c(C#N)c4)n3)cccc21` [Compound 60] stands 0.5 to 5 nM. Then `CC(C)Oc1ccc(-c2nc(-c3cccc4c3CC[C@H]4NCC(=O)O)no2)cc1C#N` [Compound 61], with below 0.05 nM. Turning to `CC(C)Oc1ccc(-c2nc(-c3cccc4c3CC[C@H]4NCCC(=O)O)no2)cc1C#N` [Compound 62, (R)-3-((4-(5-(3-cyano-4-isopropoxyphenyl)-1,2,4-oxadiazol-3-yl)-2,3-dihydro-1H-inden-1-yl)amino)propanoic acid], the EC50 was below 0.05 nM. Consider `CC(C)Oc1ccc(-c2nc(-c3cccc4c3CC[C@H]4N[C@H](C)C(=O)O)no2)cc1C#N` [Compound 63], for which the EC50 is below 0.05 nM.

Take `CC(C)Oc1ccc(-c2nc(-c3cccc4c3CC[C@H]4N[C@@H](C)C(=O)O)no2)cc1C#N` [Compound 64]: the EC50 was below 0.05 nM. Consider `CC(C)Oc1ccc(-c2nc(-c3cccc4c3CC[C@H]4NC(=O)CO)no2)cc1C#N` [Compound 65, (R)-N-(4-(5-(3 cyano-4-isopropoxyphenyl)-1,2,4-oxadiazol-3-yl)-2,3-dihydro-1H-inden-1-yl)-2-hydroxyacetamide], for which the EC50 is below 0.05 nM. Under `CC(C)Oc1ccc(-c2nc(-c3cccc4c3CC[C@H]4NC(=O)CN)no2)cc1C#N` [Compound 66] stands 0.05 to 0.5 nM; under `CC(C)Oc1ccc(-c2nc(-c3cccc4c3CC[C@H]4NC(=O)CN(C)C)no2)cc1C#N` [Compound 67], 0.05 to 0.5 nM.

`CC(C)Oc1ccc(-c2nc(-c3cccc4c3CC[C@H]4NC(=O)CN3CCCC3)no2)cc1C#N` [Compound 68]: the EC50 is 0.5 to 5 nM. Then `CC(C)Oc1ccc(-c2nc(-c3cccc4c3CC[C@@H]4NS(C)(=O)=O)no2)cc1C#N` [Compound 69, (S)-N-(4-(5-(3 cyano-4-isopropoxyphenyl)-1,2,4-oxadiazol-3-yl)-2,3-dihydro-1H-inden-1-yl)methanesulfonamide], with below 0.05 nM; and `CC(C)Oc1ccc(-c2nc(-c3cccc4c3CC[C@@H]4NS(=O)(=O)CC(=O)O)no2)cc1C#N` [Compound 71, (S)-2-(N-(4-(5-(3-cyano-4-isopropoxyphenyl)-1,2,4-oxadiazol-3-yl)-2,3-dihydro-1H-inden-1-yl)sulfamoyl)acetic acid], with 0.05 to 0.5 nM. Then `CCS(=O)(=O)N[C@H]1CCc2c(-c3noc(-c4ccc(OC(C)C)c(C#N)c4)n3)cccc21` [Compound 73], with 0.5 to 5 nM; and `CNCCS(=O)(=O)N[C@H]1CCc2c(-c3noc(-c4ccc(OC(C)C)c(C#N)c4)n3)cccc21` [Compound 74], with 0.05 to 0.5 nM; and `CC(C)CS(=O)(=O)N[C@@H]1CCc2c(-c3noc(-c4ccc(OC(C)C)c(C#N)c4)n3)cccc21` [Compound 76], with 0.5 to 5 nM.

In the case of `CC(C)Oc1ccc(-c2nc(-c3cccc4c3CC[C@@H]4NS(=O)(=O)CCN(C)C)no2)cc1C#N` [Compound 78, (S)-N-(4-(5-(3 cyano-4-isopropoxyphenyl)-1,2,4-oxadiazol-3-yl)-2,3-dihydro-1H-inden-1-yl)-2-(dimethylamino)ethanesulfonamide], the EC50 fell in the range of 0.5 to 5 nM. Then `CC(C)Oc1ccc(-c2nc(-c3cccc4c3CC[C@H]4NS(=O)(=O)Cc3ccccc3)no2)cc1C#N` [Compound 81], with 0.5 to 5 nM; and `CC(C)Oc1ccc(-c2nc(-c3cccc4c3CC[C@H]4N3CC(O)C3)no2)cc1C#N` [Compound 83, (R)-5-(3-(1-(3-hydroxyazetidin-1-yl)-2,3-dihydro-1H-inden-4-yl)-1,2,4-oxadiazol-5-yl)-2-isopropoxybenzonitrile], with 0.05 to 0.5 nM. Under `CC(C)Oc1ccc(-c2nc(-c3cccc4c3CC[C@@H]4N3CC(O)C3)no2)cc1C#N` [Compound 84, (S)-5-(3-(1-(3-hydroxyazetidin-1-yl)-2,3-dihydro-1H-inden-4-yl)-1,2,4-oxadiazol-5-yl)-2-isopropoxybenzonitrile] stands 0.05 to 0.5 nM; under `CC(C)N[C@H]1CCc2c(-c3noc(-c4ccc(OC(C)C)c(C#N)c4)n3)cccc21` [Compound 87], 0.5 to 5 nM; under `COCCN[C@H]1CCc2c(-c3noc(-c4ccc(OC(C)C)c(C#N)c4)n3)cccc21` [Compound 89], 0.05 to 0.5 nM. Under `N#Cc1cccc(-c2nc(-c3cccc4c3CC[C@H]4N)no2)c1` [Compound 92, (R)-3-(3-(1-amino-2,3-dihydro-1H-inden-4-yl)-1,2,4-oxadiazol-5-yl)benzonitrile] stands above 5 nM; under `N#Cc1cc(OC(F)(F)F)cc(-c2nc(-c3cccc4c3CC[C@H]4N)no2)c1` [Compound 93, (R)-3-(3-(1-amino-2,3-dihydro-1H-inden-4-yl)-1,2,4-oxadiazol-5-yl)-5-(trifluoromethoxy)benzonitrile], above 5 nM. `CCOc1ccc(-c2nc(-c3cccc4c3CC[C@H]4N)no2)cc1C#N` [Compound 94]: the EC50 fell in the range of 0.5 to 5 nM. Under `CC(C)Oc1ccc(-c2nc(-c3cccc4c3CC[C@H]4N)no2)cc1Cl` [Compound 95, (R)-4-(5-(3-chloro-4-isopropoxyphenyl)-1,2,4-oxadiazol-3-yl)-2,3-dihydro-1H-inden-1-amine] stands above 5 nM.
